# According to PubChem BioAssay AID256 (DTP/NCI, 2004):
# “And” between values parts separate entries of the source, which are not always exact repeats. Identical values can stand only once. Inconclusive results and toxic doses are left out. Starred links: 1 amine or outer side, 2 acyl side, 3 side chain; linkers in the order of their positions; H or OH if unused. Non-standard residues stand in square brackets, D forms with d. Residues, ends and D or L forms follow the SMILES beside them. *: point of attachment. X2 = CCC(=O)CC1CC(C)CC(C(=O)[*:2])N1[*:1]; X1 = CCCCCCCCC(C)C(=O)*; Aib = CC(C)(N)C(=O)O; X3 = CC(CN(C)CCO)N*
# Test system: CD2F1 mice, L1210 leukemia ip, survival T/C
# Assay: NCI In Vivo Anticancer Drug Screen. Data for tumor model L1210 Leukemia (intraperitoneal) in CD2F1 (CDF1) mice
# Settings: higher = longer survival
# Outline: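 Vehicle-treated tumor-bearing mice served as controls (C) for compound-treated mice (T). Reported figure is T divided by C.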
# [1] = endpoint: mean survival time, dose: 100.0 mg/kg/injection, schedule: Q01DX009 (ip), vehicle: saline with Tween-80
# [2] = endpoint: mean survival time, dose: 200.0 mg/kg/injection, schedule: Q01DX009 (ip), vehicle: saline with Tween-80
# [3] = endpoint: mean survival time, dose: 400.0 mg/kg/injection, schedule: Q01DX009 (ip), vehicle: saline with Tween-80
# [4] = endpoint: mean survival time, dose: 100.0 mg/kg/injection, schedule: Q01DX001 (ip), vehicle: saline
# [5] = endpoint: mean survival time, dose: 200.0 mg/kg/injection, schedule: Q01DX001 (ip), vehicle: saline
structure (smiles),measurement,setting,value
O=C1OC2C3CC4C2OC(=O)C4C13 (stereo unspecified),T/C,[1],102 % of control
same,T/C,[2],98 % of control
same,T/C,[3],90 % of control
C[C@H](N)C(=O)N[C@@H]1[C@H]2C(=C(O)C[C@@H](O)[C@@H]2O)C(=O)O[C@@H]1C,T/C,"endpoint: mean survival time, dose: 100.0 mg/kg/injection, schedule: Q01DX007 (ip), vehicle: saline",113 % of control
same,T/C,"endpoint: mean survival time, dose: 100.0 mg/kg/injection, schedule: Q01DX009 (ip), vehicle: saline",118 % of control
same,T/C,"endpoint: mean survival time, dose: 100.0 mg/kg/injection, schedule: Q03DX003 (ip), vehicle: saline",107 % of control
same,T/C,"endpoint: mean survival time, dose: 100.0 mg/kg/injection, schedule: Q04DX003 (ip), vehicle: saline",106 % of control
same,T/C,"endpoint: mean survival time, dose: 200.0 mg/kg/injection, schedule: Q01DX007 (ip), vehicle: saline",124 % of control
same,T/C,"endpoint: mean survival time, dose: 200.0 mg/kg/injection, schedule: Q01DX009 (ip), vehicle: saline",120 % of control
same,T/C,"endpoint: mean survival time, dose: 200.0 mg/kg/injection, schedule: Q03DX003 (ip), vehicle: saline",109 % of control
same,T/C,"endpoint: mean survival time, dose: 200.0 mg/kg/injection, schedule: Q04DX003 (ip), vehicle: saline",106 % of control
same,T/C,"endpoint: mean survival time, dose: 400.0 mg/kg/injection, schedule: Q03DX003 (ip), vehicle: saline",115 % of control
same,T/C,"endpoint: mean survival time, dose: 400.0 mg/kg/injection, schedule: Q04DX003 (ip), vehicle: saline",112 % of control
same,T/C,"endpoint: median survival time, dose: 75.0 mg/kg/injection, schedule: Q01DX009 (ip), vehicle: saline",103 % of control
same,T/C,"endpoint: median survival time, dose: 150.0 mg/kg/injection, schedule: Q01DX009 (ip), vehicle: saline",109 % of control
same,T/C,"endpoint: median survival time, dose: 300.0 mg/kg/injection, schedule: Q01DX009 (ip), vehicle: saline",119 % of control
same,T/C,"endpoint: median survival time, dose: 1200.0 mg/kg/injection, schedule: Q01DX009 (ip), vehicle: saline",150 % of control and 166 % of control
same,T/C,"endpoint: median survival time, dose: 2400.0 mg/kg/injection, schedule: Q01DX009 (ip), vehicle: saline",86 % of control
CC(=O)NCCc1ccc2c(c1)[nH]c1ccccc12,T/C,[4],101 % of control
same,T/C,[5],100 % of control
same,T/C,"endpoint: mean survival time, dose: 400.0 mg/kg/injection, schedule: Q01DX001 (ip), vehicle: saline",93 % of control
O=C(O)CS(=O)(=O)c1ccc(Cl)cc1,T/C,"endpoint: mean survival time, dose: 100.0 mg/kg/injection, schedule: Q01DX001 (ip), vehicle: Klucel (hydroxypropylcellulose) (HPC)",111 % of control
same,T/C,"endpoint: mean survival time, dose: 200.0 mg/kg/injection, schedule: Q01DX001 (ip), vehicle: Klucel (hydroxypropylcellulose) (HPC)",103 % of control
same,T/C,"endpoint: mean survival time, dose: 400.0 mg/kg/injection, schedule: Q01DX001 (ip), vehicle: Klucel (hydroxypropylcellulose) (HPC)",100 % of control
CCCCCCCCC(C)C(=O)N1CCCC1C(=O)N1C(CC(=O)CC)CC(C)CC1C(=O)NC(C)C(=O)NC(C)(C)C(=O)NC(C)(C)C(=O)NC(C(=O)NC(C)C(=O)NC(C)(C)C(=O)NC(C)(C)C(=O)NC(C)CN(C)CCO)C(C)CC (stereo unspecified) (X1-P[X2]A[Aib][Aib]IA[Aib][Aib]-X3; configuration not given here),T/C,"endpoint: mean survival time, dose: 0.15 mg/kg/injection, schedule: Q01DX009 (ip), vehicle: Klucel (hydroxypropylcellulose) (HPC)",110 % of control
same,T/C,"endpoint: mean survival time, dose: 0.31 mg/kg/injection, schedule: Q01DX009 (ip), vehicle: Klucel (hydroxypropylcellulose) (HPC)",111 % of control and 112 % of control
same,T/C,"endpoint: mean survival time, dose: 0.62 mg/kg/injection, schedule: Q01DX009 (ip), vehicle: Klucel (hydroxypropylcellulose) (HPC)",115 % of control and 104 % of control
same,T/C,"endpoint: mean survival time, dose: 1.25 mg/kg/injection, schedule: Q01DX009 (ip), vehicle: Klucel (hydroxypropylcellulose) (HPC)",122 % of control and 108 % of control
same,T/C,"endpoint: mean survival time, dose: 2.5 mg/kg/injection, schedule: Q01DX009 (ip), vehicle: Klucel (hydroxypropylcellulose) (HPC)",115 % of control and 117 % of control
same,T/C,"endpoint: mean survival time, dose: 5.0 mg/kg/injection, schedule: Q01DX009 (ip), vehicle: Klucel (hydroxypropylcellulose) (HPC)",103 % of control
O=P(Oc1ccccc1)(c1ccccc1)c1ccccc1,T/C,"endpoint: mean survival time, dose: 100.0 mg/kg/injection, schedule: Q04DX003 (ip), vehicle: saline with Tween-80",109 % of control
same,T/C,"endpoint: mean survival time, dose: 200.0 mg/kg/injection, schedule: Q04DX003 (ip), vehicle: saline with Tween-80",95 % of control
same,T/C,"endpoint: mean survival time, dose: 400.0 mg/kg/injection, schedule: Q04DX003 (ip), vehicle: saline with Tween-80",109 % of control
CCSC(C)CC(=O)O (stereo unspecified),T/C,[4],103 % of control
same,T/C,[5],103 % of control
COc1ccc(-c2cc(C(=O)N/N=C/c3ccc([N+](=O)[O-])cc3)c3ccc(C)cc3n2)cc1OC,T/C,[1],93 % of control
same,T/C,[2],106 % of control
same,T/C,[3],108 % of control
Cc1ccc[n+](CCCCCCCC[n+]2cccc(C)c2)c1,T/C,"endpoint: mean survival time, dose: 0.5 mg/kg/injection, schedule: Q04DX003 (ip), vehicle: saline",100 % of control
same,T/C,"endpoint: mean survival time, dose: 1.0 mg/kg/injection, schedule: Q04DX003 (ip), vehicle: saline",103 % of control
same,T/C,"endpoint: mean survival time, dose: 2.0 mg/kg/injection, schedule: Q04DX003 (ip), vehicle: saline",106 % of control
N#CC(CN1CCOCC1)[N+](=O)[O-] (stereo unspecified),T/C,[1],95 % of control
same,T/C,[2],100 % of control
same,T/C,[3],118 % of control
CC1(C)OC2C(COC(=O)CI)OC(n3ccc(=O)[nH]c3=O)C2O1 (stereo unspecified),T/C,"endpoint: median survival time, dose: 25.0 mg/kg/injection, schedule: Q01DX005 (ip), vehicle: Klucel (hydroxypropylcellulose) (HPC)",102 % of control
same,T/C,"endpoint: median survival time, dose: 50.0 mg/kg/injection, schedule: Q01DX005 (ip), vehicle: Klucel (hydroxypropylcellulose) (HPC)",98 % of control
